Columns and labels:
Type in all cases: in vivo
[1] = system: soybean (Glycine max var. Winchester); experiment: Preemergence herbicidal activity, soybean; conditions: Rate of Application 0.3 Kg/Ha, examined after 12-17 days
[2] = system: common chickweed (Stellaria media); experiment: Postemergence herbicidal activity, chickweed; conditions: rate of application 0.3 Kg/Ha, rated after 12-17 days
[3] = system: velvetleaf (Abutilon theophrasti); experiment: Postemergence herbicidal activity, velvetleaf; conditions: rate of application 0.3 Kg/Ha, rated after 12-17 days
[4] = system: Johnsongrass (Sorghum halepense); experiment: Preemergence herbicidal activity, johnsongrass; conditions: Rate of Application 0.3 Kg/Ha, examined after 12-17 days
[5] = system: field corn (Zea mays var. Pioneer 3732); experiment: Postemergence herbicidal activity, corn; conditions: rate of application 0.3 Kg/Ha, rated after 12-17 days
[6] = system: velvetleaf (Abutilon theophrasti); experiment: Preemergence herbicidal activity, velvetleaf; conditions: Rate of Application 0.3 Kg/Ha, examined after 12-17 days
[7] = system: Johnsongrass (Sorghum halepense); experiment: Postemergence herbicidal activity, johnsongrass; conditions: rate of application 0.3 Kg/Ha, rated after 12-17 days
[8] = system: morningglory (Ipomea lacunosa or Ipomea hederacea); experiment: Preemergence herbicidal activity, morningglory; conditions: Rate of Application 0.3 Kg/Ha, examined after 12-17 days
[9] = system: common chickweed (Stellaria media); experiment: Preemergence herbicidal activity, chickweed; conditions: Rate of Application 0.3 Kg/Ha, examined after 12-17 days
[10] = system: green foxtail (Setaria viridis); experiment: Postemergence herbicidal activity, green foxtail; conditions: rate of application 0.3 Kg/Ha, rated after 12-17 days
[11] = system: green foxtail (Setaria viridis); experiment: Preemergence herbicidal activity, green foxtail; conditions: Rate of Application 0.3 Kg/Ha, examined after 12-17 days
[12] = system: field corn (Zea mays var. Pioneer 3732); experiment: Preemergence herbicidal activity, corn; conditions: Rate of Application 0.3 Kg/Ha, examined after 12-17 days
[13] = system: wheat (Triticum aestivum var. Lew); experiment: Postemergence herbicidal activity, wheat; conditions: rate of application 0.3 Kg/Ha, rated after 12-17 days
[14] = system: morningglory (Ipomea lacunosa or Ipomea hederacea); experiment: Postemergence herbicidal activity, morningglory; conditions: rate of application 0.3 Kg/Ha, rated after 12-17 days
[15] = system: soybean (Glycine max var. Winchester); experiment: Postemergence herbicidal activity, soybean; conditions: rate of application 0.3 Kg/Ha, rated after 12-17 days
[16] = system: common cocklebur (Xanthium strumarium L.); experiment: Postemergence herbicidal activity, cocklebur; conditions: rate of application 0.3 Kg/Ha, rated after 12-17 days
[17] = system: wheat (Triticum aestivum var. Lew); experiment: Preemergence herbicidal activity, wheat; conditions: Rate of Application 0.3 Kg/Ha, examined after 12-17 days
[18] = system: common cocklebur (Xanthium strumarium L.); experiment: Preemergence herbicidal activity, cocklebur; conditions: Rate of Application 0.3 Kg/Ha, examined after 12-17 days
[19] = system: blackgrass (Aloepecurus myosuroides); experiment: Postemergence herbicidal activity, blackgrass; conditions: rate of application 0.3 Kg/Ha, rated after 12-17 days
[20] = system: blackgrass (Aloepecurus myosuroides); experiment: Preemergence herbicidal activity, blackgrass; conditions: Rate of Application 0.3 Kg/Ha, examined after 12-17 days

Row | Structure (SMILES) | PREEMERGENCE HERBICIDAL ACTIVITY (% CONTROL) SOY [1] | Postemergence herbicidal activity (% control) STEME [2] | Postemergence herbicidal activity (% control) ABUTH [3] | PREEMERGENCE HERBICIDAL ACTIVITY (% CONTROL) SORHA [4] | Postemergence herbicidal activity (% control) CRN [5] | PREEMERGENCE HERBICIDAL ACTIVITY (% CONTROL) ABUTH [6] | Postemergence herbicidal activity (% control) SORHA [7] | PREEMERGENCE HERBICIDAL ACTIVITY (% CONTROL) IPOSS [8] | PREEMERGENCE HERBICIDAL ACTIVITY (% CONTROL) STEME [9] | Postemergence herbicidal activity (% control) SETVI [10] | PREEMERGENCE HERBICIDAL ACTIVITY (% CONTROL) SETVI [11] | PREEMERGENCE HERBICIDAL ACTIVITY (% CONTROL) CRN [12] | Postemergence herbicidal activity (% control) WHT [13] | Postemergence herbicidal activity (% control) IPOSS [14] | Postemergence herbicidal activity (% control) SOY [15] | Postemergence herbicidal activity (% control) XANPE [16] | PREEMERGENCE HERBICIDAL ACTIVITY (% CONTROL) WHT [17] | PREEMERGENCE HERBICIDAL ACTIVITY (% CONTROL) XANPE [18] | Postemergence herbicidal activity (% control) ALOMY [19] | PREEMERGENCE HERBICIDAL ACTIVITY (% CONTROL) ALOMY [20]
1 | CON=Cc1cc2c(Cl)ccc(-n3c(=O)cc(C(F)(F)F)n(C)c3=O)c2o1 [Compound 259] | 70% | 30% | 100% | 95% | 75% | 100% | 70% | 70% | 100% | 80% | 100% | 80% | 35% | 90% | 80% | 70% | 40% | 55% | 55% | –
2 | Cc1cc2c(Cl)cc(F)c(-n3c(=O)cc(C(F)(F)F)n(C)c3=O)c2o1 [Compound 222] | 100% | 100% | 100% | 100% | 90% | 100% | 100% | 100% | 100% | 100% | 100% | 90% | 70% | 100% | 100% | 100% | 70% | 100% | 100% | –
3 | CNC(=O)c1cc2c(Cl)ccc(-n3c(=O)cc(C(F)(F)F)n(C)c3=O)c2o1 [Compound 270] | 70% | 40% | 100% | 100% | 50% | 100% | 50% | 100% | – | 50% | 100% | 90% | 40% | 60% | 70% | – | 70% | 60% | 50% | 65%
4 | CCOC(=O)c1cc2c(N3C(=O)C4=C(CCCC4)C3=O)ccc(Cl)c2[nH]1 [Compound 595, 3-(7-CHLORO-2-ETHOXYCARBONYLINDOL4-YL)-4,5,6,7-TETRAHYDRO-1H-ISOINDOLE-1,3(2H)-DIONE] | 10% | 0% | 30% | 40% | 60% | 60% | 20% | 50% | 10% | 20% | 0% | 0% | 10% | 40% | 50% | 20% | 0% | 20% | 10% | –
5 | Cn1c(C(F)(F)F)cc(=O)n(-c2ccc(Cl)c3cc(C=NO)oc23)c1=O [Compound 258] | 30% | 5% | 80% | 40% | 60% | 100% | 50% | 60% | 0% | 60% | 40% | 75% | 30% | 70% | 80% | 50% | 30% | 60% | 30% | –
6 | COCOC(C)(C)c1cc2c(Cl)cc(F)c(-n3c(=O)cc(C(F)(F)F)n(C)c3=O)c2o1 [Compound 252] | 100% | 100% | 100% | 100% | 100% | 100% | 100% | 100% | 100% | 100% | 100% | 100% | 90% | 100% | 95% | – | 100% | – | 100% | 100%
